Laboratory results as given in PubChem BioAssay AID200 (DTP/NCI, 2004).
Values joined by “and” are separate entries in the source; they are usually repeats but may differ in a detail not shown here. Equal values may be shown once. Inconclusive results and toxic doses are left out. Where a SMILES comes first, the peptide text is derived from it. The star is where a group is joined. Cbz = O=C(OCc1ccccc1)*; Bn = c1ccc(C*)cc1

Test system: B6C3F1 mice, B16 melanoma ip, median survival T/C
Experiment: NCI In Vivo Anticancer Drug Screen. Data for tumor model B16 Melanoma (intraperitoneal) in B6C3F1 mice
Conditions: endpoint: median survival time, higher = longer survival
Method: The antitumor activity of compounds was measured in mice bearing transplantable tumors. Survival or tumor size were measured and the results are expressed as the measurement made in the treated group (T) divided by the measurement made in the vehicle treated control group (C). The tumor model used in this assay is B16 Melanoma (intraperitoneal) in B6C3F1 mice

[1] = dose: 0.25 mg/kg/injection, schedule: Q01DX009 (ip), vehicle: saline
[2] = dose: 12.5 mg/kg/injection, schedule: Q01DX009 (ip), vehicle: saline with Tween-80
[3] = dose: 25.0 mg/kg/injection, schedule: Q01DX009 (ip), vehicle: Klucel (hydroxypropylcellulose) (HPC)
[4] = dose: 25.0 mg/kg/injection, schedule: Q01DX009 (ip), vehicle: saline with Tween-80
[5] = dose: 50.0 mg/kg/injection, schedule: Q01DX009 (ip), vehicle: Klucel (hydroxypropylcellulose) (HPC)
[6] = dose: 50.0 mg/kg/injection, schedule: Q01DX009 (ip), vehicle: saline with Tween-80
[7] = dose: 100.0 mg/kg/injection, schedule: Q01DX009 (ip), vehicle: Klucel (hydroxypropylcellulose) (HPC)
[8] = dose: 200.0 mg/kg/injection, schedule: Q01DX009 (ip), vehicle: Klucel (hydroxypropylcellulose) (HPC)
[9] = dose: 400.0 mg/kg/injection, schedule: Q01DX009 (ip), vehicle: Klucel (hydroxypropylcellulose) (HPC)
[10] = dose: 12.5 mg/kg/injection, schedule: Q01DX009 (ip), vehicle: saline
[11] = dose: 25.0 mg/kg/injection, schedule: Q01DX009 (ip), vehicle: saline
[12] = dose: 50.0 mg/kg/injection, schedule: Q01DX009 (ip), vehicle: saline
[13] = dose: 100.0 mg/kg/injection, schedule: Q01DX009 (ip), vehicle: saline
[14] = dose: 200.0 mg/kg/injection, schedule: Q01DX009 (ip), vehicle: saline
[15] = dose: 400.0 mg/kg/injection, schedule: Q01DX009 (ip), vehicle: saline
[16] = dose: 100.0 mg/kg/injection, schedule: Q01DX009 (ip), vehicle: saline with Tween-80
[17] = dose: 200.0 mg/kg/injection, schedule: Q01DX009 (ip), vehicle: saline with Tween-80
[18] = dose: 400.0 mg/kg/injection, schedule: Q01DX009 (ip), vehicle: saline with Tween-80

## N[C@@H](Cc1ccc(N(CCCl)CCCl)cc1)C(=O)O
[1]
  T/C: 111 % of control and 124 % of control
dose: 0.25 mg/kg/injection, schedule: Q01DX009 (ip), vehicle: water
  T/C: 124 % of control
dose: 1.0 mg/kg/injection, schedule: Q01DX009 (ip), vehicle: water
  T/C: 183 % of control
dose: 2.0 mg/kg/injection, schedule: Q01DX009 (ip), vehicle: saline with Tween-80
  T/C: 176 % of control
dose: 2.0 mg/kg/injection, schedule: Q01DX009 (ip), vehicle: water
  T/C: 194 % of control
dose: 2.0 mg/kg/injection, schedule: Q04DX003 (ip), vehicle: saline
  T/C: 164 % of control
dose: 2.5 mg/kg/injection, schedule: Q04DX003 (ip), vehicle: saline
  T/C: 182 % of control
dose: 4.0 mg/kg/injection, schedule: Q01DX009 (ip), vehicle: saline with Tween-80
  T/C: 387 % of control
dose: 4.0 mg/kg/injection, schedule: Q04DX003 (ip), vehicle: saline
  T/C: 204 % of control
dose: 5.0 mg/kg/injection, schedule: Q04DX003 (ip), vehicle: saline
  T/C: 217 % of control
dose: 7.31 mg/kg/injection, schedule: Q01DX001 (ip), vehicle: other
  T/C: 172 % of control
dose: 7.5 mg/kg/injection, schedule: Q04DX003 (ip), vehicle: saline
  T/C: 230 % of control and 240 % of control
dose: 9.75 mg/kg/injection, schedule: Q01DX001 (ip), vehicle: other
  T/C: 157 % of control
dose: 10.0 mg/kg/injection, schedule: Q04DX003 (ip), vehicle: saline
  T/C: 79 % of control
dose: 13.0 mg/kg/injection, schedule: Q01DX001 (ip), vehicle: other
  T/C: 173 % of control

## ClC1C(Cl)C(Cl)C(Cl)C(Cl)C1Cl (stereo not drawn)
dose: 3.12 mg/kg/injection, schedule: Q01DX009 (ip), vehicle: saline with Tween-80
  T/C: 88 % of control and 90 % of control
dose: 6.25 mg/kg/injection, schedule: Q01DX009 (ip), vehicle: saline with Tween-80
  T/C: 109 % of control and 91 % of control
[2]
  T/C: 107 % of control
[3]
  T/C: 100 % of control
[4]
  T/C: 92 % of control and 97 % of control
[5]
  T/C: 100 % of control
[6]
  T/C: 93 % of control
[7]
  T/C: 105 % of control
[8]
  T/C: 111 % of control
[9]
  T/C: 107 % of control

## O=c1[nH]cnc2c1cnn2CN1CCOCC1
[3]
  T/C: 98 % of control and 99 % of control
[5]
  T/C: 100 % of control and 102 % of control
[7]
  T/C: 123 % of control and 100 % of control
[8]
  T/C: 99 % of control

## CCCC(=O)Nc1ncnc2c1ncn2C1OC2COP(=O)(O)OC2C1OC(=O)CCC (stereo not drawn)
[10]
  T/C: 102 % of control (2×) and 103 % of control
[11]
  T/C: 95 % of control and 100 % of control and 104 % of control
[12]
  T/C: 93 % of control and 102 % of control (2×)
[13]
  T/C: 94 % of control and 101 % of control and 102 % of control
[14]
  T/C: 112 % of control and 88 % of control and 100 % of control
[15]
  T/C: 88 % of control and 94 % of control and 103 % of control

## Cc1cn(C2CC(F)C(CO)O2)c(=O)[nH]c1=O (stereo not drawn)
dose: 125.0 mg/kg/injection, schedule: Q01DX009 (ip), vehicle: suspension in saline
  T/C: 117 % of control
dose: 250.0 mg/kg/injection, schedule: Q01DX009 (ip), vehicle: suspension in saline
  T/C: 116 % of control

## NC(N)=NS(=O)(=O)c1ccc(NCc2c3ccccc3nc3ccccc23)cc1
[3]
  T/C: 159 % of control
[5]
  T/C: 184 % of control
[7]
  T/C: 213 % of control
[8]
  T/C: 238 % of control
[9]
  T/C: 238 % of control
dose: 800.0 mg/kg/injection, schedule: Q01DX009 (ip), vehicle: Klucel (hydroxypropylcellulose) (HPC)
  T/C: 250 % of control

## O=CC=O
[2]
  T/C: 114 % of control
[4]
  T/C: 110 % of control
[6]
  T/C: 102 % of control and 108 % of control
[16]
  T/C: 114 % of control and 106 % of control
[17]
  T/C: 120 % of control and 108 % of control

## CNC(=S)N/N=C(/C)CCc1c(C)nn(C(=S)NC)c1C
dose: 12.5 mg/kg/injection, schedule: Q01DX009 (ip), vehicle: Klucel (hydroxypropylcellulose) (HPC)
  T/C: 103 % of control
[3]
  T/C: 106 % of control
[5]
  T/C: 102 % of control

## CCCC1CC(C(=O)NC(C(C)O)C2OC(SC)C(O)C(O)C2O)N(C)C1 (stereo not drawn)
[5]
  T/C: 113 % of control
[7]
  T/C: 95 % of control
[8]
  T/C: 100 % of control
[9]
  T/C: 89 % of control

## COc1cccc2c1C(=O)c1c(O)c3c(c(O)c1C2=O)C[C@@](O)(C(C)=O)C[C@@H]3OC1CC(N(Cc2ccccc2)Cc2ccccc2)C(O)C(C)O1 (stereo partly drawn)
dose: 1.5 mg/kg/injection, schedule: Q01DX009 (ip), vehicle: saline with Tween-80
  T/C: 100 % of control
dose: 1.5 mg/kg/injection, schedule: Q01DX009 (ip), vehicle: water
  T/C: 112 % of control
dose: 3.0 mg/kg/injection, schedule: Q01DX009 (ip), vehicle: saline with Tween-80
  T/C: 111 % of control
dose: 3.0 mg/kg/injection, schedule: Q01DX009 (ip), vehicle: water
  T/C: 116 % of control
dose: 12.0 mg/kg/injection, schedule: Q01DX009 (ip), vehicle: saline with Tween-80
  T/C: 156 % of control
dose: 12.0 mg/kg/injection, schedule: Q01DX009 (ip), vehicle: water
  T/C: 151 % of control

## CC(C)(C)OC(=O)NCCCCC(NC(=O)OCC1c2ccccc2-c2ccccc21)C(=O)O (stereo not drawn)
[3]
  T/C: 100 % of control
[5]
  T/C: 95 % of control

## CC1=CC2c3cccc4[nH]cc(c34)CC2N(C)C1 (stereo not drawn)
dose: 2.5 mg/kg/injection, schedule: Q01DX009 (ip), vehicle: suspension in saline
  T/C: 103 % of control
dose: 5.0 mg/kg/injection, schedule: Q01DX009 (ip), vehicle: suspension in saline
  T/C: 101 % of control
dose: 10.0 mg/kg/injection, schedule: Q01DX009 (ip), vehicle: suspension in saline
  T/C: 101 % of control
dose: 20.0 mg/kg/injection, schedule: Q01DX009 (ip), vehicle: suspension in saline
  T/C: 95 % of control

## Cc1c2ccnc(C(N)=O)c2c(C)c2c1[nH]c1ccccc12
dose: 62.0 mg/kg/injection, schedule: Q04DX003 (ip), vehicle: distilled water + Tween-80
  T/C: 96 % of control
dose: 125.0 mg/kg/injection, schedule: Q04DX003 (ip), vehicle: distilled water + Tween-80
  T/C: 120 % of control
dose: 200.0 mg/kg/injection, schedule: Q01DX009 (ip), vehicle: distilled water + Tween-80
  T/C: 117 % of control
dose: 250.0 mg/kg/injection, schedule: Q04DX003 (ip), vehicle: distilled water + Tween-80
  T/C: 106 % of control
dose: 400.0 mg/kg/injection, schedule: Q01DX009 (ip), vehicle: distilled water + Tween-80
  T/C: 123 % of control
dose: 500.0 mg/kg/injection, schedule: Q04DX003 (ip), vehicle: distilled water + Tween-80
  T/C: 100 % of control
dose: 1000.0 mg/kg/injection, schedule: Q04DX003 (ip), vehicle: distilled water + Tween-80
  T/C: 124 % of control

## CCCCCCCCCCCCCCCC(=O)Nc1ccn(C2OC(CO)C(O)C2O)c(=O)n1 (stereo not drawn)
dose: 6.25 mg/kg/injection, schedule: Q01DX009 (ip), vehicle: saline
  T/C: 98 % of control
[11]
  T/C: 157 % of control
[12]
  T/C: 180 % of control

## O=C(NC(CSCc1ccccc1)C(=O)NC(Cc1ccc(O)cc1)C(=O)O)OCc1ccccc1 (stereo not drawn) (Cbz-Cys(Bn)-Tyr-OH; configuration not given here)
[16]
  T/C: 90 % of control
[17]
  T/C: 101 % of control
[18]
  T/C: 87 % of control

## COc1cccc2c1C(=O)c1c(O)c3c(c(O)c1C2=O)C[C@@](O)(C(=O)COC(=O)c1cccnc1)C[C@@H]3OC1CC(N)C(O)C(C)O1 (stereo partly drawn)
[1]
  T/C: 170 % of control
dose: 0.5 mg/kg/injection, schedule: Q01DX009 (ip), vehicle: saline
  T/C: 198 % of control
dose: 1.0 mg/kg/injection, schedule: Q01DX009 (ip), vehicle: saline
  T/C: 220 % of control
dose: 2.0 mg/kg/injection, schedule: Q01DX009 (ip), vehicle: saline
  T/C: 255 % of control

## O=C(O)C1CCCN1C(=O)OCC1c2ccccc2-c2ccccc21 (stereo not drawn)
[7]
  T/C: 107 % of control
[8]
  T/C: 104 % of control

## NC(=O)CCC(N)C(=O)O (stereo not drawn)
[11]
  T/C: 105 % of control
[12]
  T/C: 108 % of control
[13]
  T/C: 103 % of control
[14]
  T/C: 100 % of control
[15]
  T/C: 108 % of control

## CC1C(c2ccccc2)OC(N2CCOCC2)C(C)(C)CN1C (stereo not drawn)
[6]
  T/C: 103 % of control
[16]
  T/C: 99 % of control
[17]
  T/C: 96 % of control
[18]
  T/C: 100 % of control

## CC1=NN(c2ccccc2)C(=O)C1N=Nc1ccccc1S(=O)(=O)O (stereo not drawn)
[10]
  T/C: 104 % of control
[11]
  T/C: 94 % of control
[12]
  T/C: 96 % of control
